In US12509439B2, “Anti-malarial agents” (UNIVERSITY OF KENTUCKY RESEARCH FOUNDATION, priority 2020, dated 2025):
pIC50: −log10 of the molar value.

System: P. falciparum transgenic reporter strain NF54-HGL
Assay: Standard membrane feeding assay (transmission blocking, oocysts in mosquito midgut)
Format: cell-based
Settings: Plasmodium falciparum, NF54, read-out: IC50, transmission of P. falciparum from infected blood into mosquitos (number of oocysts in the mosquito midgut)
Description: Standard Membrane Feeding Assays (SMFA) were performed using P. falciparum transgenic reporter strain NF54-HGL that expresses a firefly luciferase gene from an hsp70 promoter (Vos et al., 2015, Scientific Reports, 5). Stage V gametocytes were pre-incubated with test compound prior to mosquito feeding. Test compound is dissolved in DMSO to achieve a stock solution of 10 mM that was serially diluted in DMSO to achieve concentrations […] above the final test concentration. Subsequently, 10 μl of diluted compound in DMSO is then added to 990 μl pre-warmed RPMI 1640 medium supplemented with 367 μM hypoxanthine, 25 mM HEPES and 25 mM NaHCO3 (‘incomplete medium’). 40 μl of this intermediate dilution is added to 360 μl of parasite culture and incubated for 48 hrs at 37° C. in Eppendorf tubes, resulting in 0.1% final DMSO concentration. Hereafter, 300 μl of the gametocyte culture/compound mix is added to 180 μl of packed red blood cells and centrifuged for 20 seconds at 10,000×g. […] Mosquitoes are processed for luminescence measurements to determine relative oocyst intensities as described previously (Stone et al., 2014, Journal of Infectious Diseases, 5, 16). Data is analyzed by fitting a four-parameter logistic regression model using maximum likelihood to find the best fit as described previously (Dechering et al., 2017, Scientific Reports, 7, 1) as shown under FIG. 5.

In the case of `N#Cc1cc(NC(=O)[C@H]2c3ccccc3C(=O)N(CC(F)(F)F)[C@@H]2c2ccc(OC3CC3)nc2)ccc1F` (single isomer, unassigned) [(1a)], the pIC50 was 6.49.
